Series [1] in a line: Silymarin solubility in water, CAPTISOL® solution and γ-cyclodextrin solution (Example 2, HPLC). The conditions noted are these: for solubility: water, thermodynamic from solid, Solubility (mg/ml) of components of silymarin. It is filed as physicochemical. Here is the method: The solutions were centrifuged for 10 min at 13K rpm. An aliquot of the supernatant was diluted 1:5 for Water, 1:25 for γ-Cyclodextrin and 1:100 for both 0.20 M CAPTISOL® and 0.20M HP-B-Cyclodextrin using MeOH as the diluent. The standard reference was prepared by dissolving silymarin in 10 mg/mL of DMSO and then diluted to 0.50 mg/mL using MeOH.
The change of the saturated solubility of the various components of silymarin in each of the four types of samples can be seen in FIG. 4.
The data shown in Table 6 is plotted in FIGS. 5 and 6. The change of the solubility of the various components of silymarin in each of the three samples can be seen in FIG. 5. The total mutual saturated solubility of all flavonolignan components can be seen in FIG. 6. […] The various components of silymarin also have increased solubility in the CAPTISOL® (0.2M) sample.

Series [2] is described as follows: Pharmacokinetic study in rat. It is filed as in vivo. The conditions noted are these: in vivo. Here is the method:
The Silymarin-CAPTISOL® complex was administered to rat to test its pharmacokinetic properties.
On arrival rats were housed individually in cages at animal care facility in a temperature and humidity controlled room with a 12 h:12 h (light:dark) cycles. The rats were provided with free access to food and water for one week before using for experimental purpose. The 12 rats were equally divided into three groups—Group I: silymarin-CAPTISOL® complex with a CAPTISOL® concentration of 100 mM for oral administration; Group II: silymarin suspension (Control); and Group III: silymarin complex with a CAPTISOL® concentration of 100 mM for intravenous administration. The animals were fasted overnight with free access to water. On the day of experiment, the rat was removed from animal care facility and brought to the procedure lab. The animal was weighed and appropriate dosing volume was determined. For oral administration, rat's head was held in place by gently extending the head back and supporting the lower body. The gavage tube was placed in the mouth and advanced along the lower palate till the esophagus, and the silymarin was administered through the tube. For intravenous administration, the silymarin-CAPTISOL® complex was administered by slow bolus intravenous injection into the tail vein. Approximately 200 μL blood was drawn into heparin coated tubes at pre dose, 0.15, 0.5, 1, 2, 4, 8, 10 and 24 h for oral group II and for intravenous group III. The sampling time points were predose, 0.12, 0.25, 0.5, 1, 2, 4, 8 and 24 h through the jugular vein catheter. Plasma was harvested by centrifuging the blood at 4000 RPM for 5 min and stored frozen at −80±10° C. until analysis.
Stored plasma was thawed just before performing the silymarin components analysis. 200 μL of acetonitrile containing 0.1% of ammonia was added to 50 μL of plasma, and this mixture was vortexed for 5 min and centrifuged at 4° C. for 5 min at 10,000 RPM. After centrifugation, the supernatant was separated and injected into HPLC for analysis of silymarin constituents taxifolin, silydianin, silychristin, silybin A, silybin B, isosilybin A and isosilybin B.
The plasma concentration-time curves of silybin A, silybin B, isosilybin A, and isosilybin B in the Silymarin-CAPTISOL® sample of Group I and the control sample (silymarin suspension) are respectively shown in FIGS. 20A to 20D.

Series [3] in a line: Solubility of silymarin components in water (Example 10, HPLC). It is filed as physicochemical. As for the experimental part: (§1) Silymarin components including taxifolin, silydianin, silychristin, silybin A, silybin B, isosilybin A, and isosilybin B were tested for their solubility in water and also for their Log D value. The silymarin extract was obtained from Indena® (Indena Code: 9065110). The HPLC system consisted of Waters system equipped with performance PLUS inline degasser along dual λ absorbance detector set at 288 nm. The chromatographic separation of silymarin constituents was achieved on a Symmetry Shield RP18 column (150×4.6 mm, 5 μm); which was maintained at ambient room temperature conditions. The binary mobile phase system consisted of reservoir A (methanol: 10 mM ammonium acetate pH 5 [65:35 v/v]) and reservoir B (10 mM ammonium acetate, pH 5) were run as per gradient program (0-1.9 min: 25% A and 75% B; 2.0-14.9 min: 80% A and 20% B and 15-37.9 min: 80% A and 20% B and 38-40 min: 25% A and 75% B). The flow rate was 1 mL/min throughout the analytical run.

Series [4] in a line: Log D of silymarin components (octanol/buffer, HPLC). The conditions noted are these: pH 7.4. The format is physicochemical. As for the experimental part: as §1
To determine the Log D of silymarin components, the silymarin extract (2 mg) was dissolved in 100% DMSO and then used for the experiment. Different buffers between pH ranges of 1.0 to 12 were prepared by using universal buffer stock containing 25 mM hydrochloric acid, 25 mM citric acid, 25 mM phosphoric acid, 30 mM boric acid and 20 mM sodium chloride. About 45 mL of universal buffer was titrated with Sodium hydroxide (5M) to obtain desired pH. A 10 μL of silymarin stock solution was spiked into Eppendorf tube containing 500 μL each of a buffer and presaturated octanol. This mixture was vortexed for 5 minutes and kept for shaking at room temperature. After 16 h, the mixture was centrifuged at 10,000 RPM for 30 minutes. After centrifugation buffer and octanol phases were separated, both phases were diluted with acetonitrile (1:1) and subject to HPLC analysis for quantitation of individual components of silymarin. The Log D values of each compound at a pH was determined by Log D (pH)=Log [Organic (peak area)/Aqueous (peak area)].

Series [5] in a line: Silymarin saturated solubility with CAPTISOL® (Example 1, HPLC). The conditions noted are these: for solubility: 25 °C, thermodynamic from solid, Solubility (mg/ml) of flavonolignan components of silymarin, saturated with excess silymarin.
Experimental: CAPTISOL® was dissolved in water to form four solutions with a CAPTISOL® concentration of 0.05 mol/L, 0.1 mol/L, 0.2 mol/L, and 0.3 mol/L respectively. 12 mg of silymarin powder (Sigma Aldrich) was added to 1 mL of each of the four CAPTISOL® solutions on Day 1, another 12 mg Silymarin powder was added on Day 3, and 19-22 mg Silymarin powder was added on Day 7 to ensure that silymarin reached its maximum solubility in each solution. The solutions were stirred in a water bath at 25° C. The solutions were then centrifuged prior to sampling. The supernatant was diluted in MeOH in preparation for HPLC assay.
A reference standard was prepared by mixing silymarin with methanol to provide a methanol solution with a silymarin concentration of 0.1 mg/ml.
HPLC was used to measure the relative concentrations of the different components of silymarin in each sample solution following the method described in Kuki et al., (2012) Chromatogram 75:175-180. The relative concentration of each component of silymarin was measured by comparing the normalized peak area units with that of the standard reference measured by the UV data at 288 nm and assuming equivalent extinction coefficients for all components.
The relative molar amounts of the ten flavonolignan components of silymarin were calculated by dividing the normalized peak area of each component in a sample by the total normalized peak area of the sample.
The concentration of each flavonolignan component of silymarin was calculated from the peak areas in Tables 1a and 1b and the total concentration of silymarin (0.1 mg/ml) in the reference sample, assuming constant extinction coefficients for each component.
Where [6] appears, read: CAPTISOL® (0.2M) in water, saturated.
[7] abbreviates: MeOH standard (0.5 mg/ml), reference.
The mark [8] stands for this setting: γ-cyclodextrin (0.15M) (Cavamax) in water, saturated.
Setting [9] is: γ-cyclodextrin (0.15M), saturated.
The mark [10] stands for this setting: 0.05 M CAPTISOL in water, aqueous with cosolvent or surfactant or cyclodextrin, CAPTISOL® (0.05M) in water.
Where [11] appears, read: 0.1 M CAPTISOL in water, aqueous with cosolvent or surfactant or cyclodextrin, CAPTISOL® (0.1M) in water.
[12] abbreviates: 0.2 M CAPTISOL in water, aqueous with cosolvent or surfactant or cyclodextrin, CAPTISOL® (0.2M) in water.
Setting [13] is: 0.3 M CAPTISOL in water, aqueous with cosolvent or surfactant or cyclodextrin, CAPTISOL® (0.3M) in water.
Where [14] appears, read: CAPTISOL® (0.05M), saturated solubility.
Setting [15] is: CAPTISOL® (0.1M), saturated solubility.
Where [16] appears, read: CAPTISOL® (0.2M), saturated solubility.
[17] abbreviates: CAPTISOL® (0.3M), saturated solubility.
[18] abbreviates: H2O, saturated solubility, share of total normalized peak area.
[19] abbreviates: MeOH standard (0.1 mg/ml), reference, share of total normalized peak area.

The source of these data is patent US10702568B2, “Compositions containing silymarin and sulfoalkyl ether cyclodextrin and methods of using the same” (UNIVERSITY OF KANSAS, priority 2015, dated 2020).

Values after ≈ are worked out from the molar mass of the structure shown.

With `COc1cc([C@H]2Oc3cc([C@H]4Oc5cc(O)cc(O)c5C(=O)[C@H]4O)ccc3O[C@@H]2CO)ccc1O` (relative stereo) [2,3-cis-silybin A], the “Solubility (mg/ml) of components of silymarin” value in series [1] (setting [6]) amounted to 2.21 mg/mL; in series [1] (H2O, saturated), 0.01 mg/mL; in series [1] (MeOH standard (0.5 mg/ml silymarin, dissolved reference, not saturated)), 0.01 mg/mL; in series [1] (setting [8]) it was 0.12 mg/mL. Moreover, the “Percentages of components of silymarin flavonolignan in the sample” value is 3.47% in series [1] (CAPTISOL® (0.2M), saturated); 1.88% in series [1] (H2O, saturated); 1.54% in series [1] (setting [7]); 1.56% in series [1] (setting [9]).
As for `COc1cc([C@@H]2Oc3cc([C@H]4Oc5cc(O)cc(O)c5C(=O)[C@H]4O)ccc3O[C@H]2CO)ccc1O` (relative stereo) [2,3-cis-silybin B], the “Solubility (mg/ml) of components of silymarin” value was 1.20 mg/mL in series [1] (setting [6]); 0.01 mg/mL in series [1] (H2O, saturated); 0.06 mg/mL in series [1] (setting [8]). Further, the “Percentages of components of silymarin flavonolignan in the sample” value in series [1] (CAPTISOL® (0.2M), saturated) is on record as 1.89%; in series [1] (H2O, saturated), 0.75%; in series [1] (setting [7]) it was 0.99%; in series [1] (setting [9]), 0.74%.
`COc1cc([C@@H]2Oc3ccc([C@H]4Oc5cc(O)cc(O)c5C(=O)[C@@H]4O)cc3O[C@H]2CO)ccc1O` [Isosilybin B]: in series [2] (iv), the “AUC(0-2 h)” value amounted to 1417 ng·h/mL, the “Cmax” value is given as 1308 ng/mL and the “Tmax” value was found to be 7.2 min. Moreover, in series [2] (po), the “% Fabs of silymarin-CAPTISOL® complex compared with silymarin alone” value was “higher % Fabs”, the “AUC of Silymarin-CAPTISOL® complex compared with the control sample” value is “higher AUC”, the “AUC(0-2 h)” value was determined as 433 ng·h/mL and the “Cmax of Silymarin-CAPTISOL® complex compared with the control sample” value is given as “higher Cmax”. The “Tmax” value in series [2] (po) was determined as 30 min. In series [3], the “Solubility in water” value was 6.36 µg/mL (≈ 0.0132 mM). The “Log D (7.4 pH)” value in series [4] was determined as 2.53.
The molecule `COc1cc([C@H]2Oc3cc([C@H]4Oc5cc(O)cc(O)c5C(=O)[C@@H]4O)ccc3O[C@@H]2CO)ccc1O` [Silybin A] came in with an AUC(0-t) in series [2] (iv, AUC(0-2 h) (ng · h/mL)) of 3440 ng·h/mL. Also, the peak level in series [2] (iv, Cmax (ng/mL)) (Cmax) was 7910 ng/mL. In addition, the Tmax turned out to be 7.2 min in series [2] (iv, Tmax (h)) and 30 min in series [2] (po, Tmax (h)). Besides, in series [2] (po), the “% Fabs of silymarin-CAPTISOL® complex compared with silymarin alone” value is on record as “higher % Fabs”. Also, in series [2] (po), the “AUC of Silymarin-CAPTISOL® complex compared with the control sample” value is reported as “higher AUC”. In addition, in series [2] (po), the “AUC(0-2 h)” value amounted to 271 ng·h/mL. Moreover, the “Cmax of Silymarin-CAPTISOL® complex compared with the control sample” value in series [2] (po) is “higher Cmax”. For the same molecule, the solubility in series [3] (water) was determined as 7.71 µg/mL (≈ 0.016 mM); in series [5] (setting [10]), 2230 µg/mL (≈ 4.62 mM); in series [5] (setting [11]), 3800 µg/mL (≈ 7.88 mM); in series [5] (setting [12]), 6370 µg/mL (≈ 13.2 mM); in series [5] (setting [13]), 7330 µg/mL (≈ 15.2 mM); in series [5] (water, H2O), 20 µg/mL (≈ 0.0415 mM). This molecule also yielded a solubility in series [1] of 30 µg/mL (≈ 0.0622 mM). Further, the “Percentages of flavonolignan components of silymarin in the sample” value (from here on “Percentages … of silymarin in the sample”) is 9.55% in series [5] (setting [14]); 9.86% in series [5] (setting [15]); 9.64% in series [5] (setting [16]); 10.22% in series [5] (setting [17]); 3.15% in series [5] (setting [18]); “about 3.15%” in series [5] (H2O, saturated solubility, share of total normalized peak area, listed as silybin A). Moreover, the “Percentages … of silymarin in the sample” value in series [5] (setting [19]) is on record as 25.35%. The same molecule showed a logD at 16 h in series [4] of 2.26.
Consider `COc1cc([C@@H]2Oc3c(O)cc([C@H]4Oc5cc(O)cc(O)c5C(=O)[C@@H]4O)cc3[C@H]2CO)ccc1O` [Silychristin A], for which the solubility in series [5] (setting [10]) came to 9570 µg/mL (≈ 19.8 mM); in series [5] (setting [11]), 15300 µg/mL (≈ 31.7 mM); in series [5] (setting [12]) it was 25500 µg/mL (≈ 52.8 mM); in series [5] (setting [13]), 26900 µg/mL (≈ 55.8 mM); in series [5] (water, H2O), 460 µg/mL (≈ 0.953 mM); in series [1] it was 440 µg/mL (≈ 0.912 mM). Moreover, the “Percentages … of silymarin in the sample” value is 41.07% in series [5] (setting [14]); 39.70% in series [5] (setting [15]); 38.52% in series [5] (setting [16]); 37.52% in series [5] (setting [17]); 22.28% in series [5] (setting [19]).
Consider `COc1cc([C@H]2Oc3c(O)cc([C@H]4Oc5cc(O)cc(O)c5C(=O)[C@@H]4O)cc3[C@@H]2CO)ccc1O` [Silychristin B], for which the solubility in series [5] (setting [10]) was 930 µg/mL (≈ 1.93 mM); in series [5] (setting [11]), 1150 µg/mL (≈ 2.38 mM); in series [5] (setting [12]), 2320 µg/mL (≈ 4.81 mM); in series [5] (setting [13]), 2500 µg/mL (≈ 5.18 mM); in series [5] (water, H2O) it was 40 µg/mL (≈ 0.0829 mM); in series [1], 60 µg/mL (≈ 0.124 mM). The “Percentages … of silymarin in the sample” value amounted to 3.98% in series [5] (setting [14]); 2.99% in series [5] (setting [15]); 3.51% in series [5] (setting [16]); 3.48% in series [5] (setting [17]); 5.21% in series [5] (setting [18]); 1.50% in series [5] (setting [19]).
`COc1cc([C@@H]2Oc3c(O)cc([C@H]4Oc5cc(O)cc(O)c5C(=O)[C@@H]4O)cc3[C@H]2CO)ccc1O` [Silychristin]: the “Solubility in water” value in series [3] worked out at 170 µg/mL (≈ 0.352 mM). In series [4], the “Log D (7.4 pH)” value came to 0.53.
